Source: patent publication US11160797B2, “Pyridinone derivatives and their use as selective ALK-2 inhibitors” (NOVARTIS AG, priority 2017, dated 2021)
Read-outs that look alike come from different tables or passages of the source.

Tests used:
[1] = molecular target: T1, wild-type ALK2 (aa172-499) (Homo sapiens (Human), UniProt Q04771); assay: Caliper biochemical peptide phosphorylation assay, ALK2
[2] = molecular target: ALK2 FOP mutant (aa172-499 R206H) (Homo sapiens (Human), UniProt Q04771, R206H); assay: Caliper biochemical peptide phosphorylation assay, ALK2 FOP
[3] = tested on: HuH7 cells, BMP response element (BRE) luciferase reporter, BMP6 stimulated; assay: BMP signaling reporter gene assay; type: cell-based; settings: Homo sapiens, Huh-7; BMP6 100 ng/ml; read-out: MSD HuH7 cell BMP reporter IC50
Description: A human liver hepatocellular carcinoma cell line (HuH7) stably transfected with a reporter plasmid consisting of the human BMP response element (BRE) from the Id1 promoter fused to a luciferase reporter gene was generated through lentiviral transduction.
Assays were performed in 384-well flat bottom polystyrene microtiter plates (cell culture treated) with sterile lids. The cells were starved through medium exchange in Blasticidine- and FCS-free medium 16 h before the assay. Prior to the assay, cells were detached from the stock flask using trypsin/EDTA and counted. A cell suspension in the same medium without Blasticidin and FCS was prepared. 2×10^4 cells in a total volume of 40 ul were added to each well of a plate already containing serial dilutions of each compound in DMSO (final DMSO concentration 0.5%). […] Assay plates are incubated for another 5 hours at 37° C., 5% CO2 before luciferase levels are measured.
The amount of expressed luciferase is quantified using the Steady-Glo® Luciferase Assay System (Promega #E2520).

ALK5 (aa162-503) = ALK5 (aa162-503) (Homo sapiens (Human), UniProt P36897); assay: Caliper biochemical peptide phosphorylation assay, ALK5; settings: 15 uM ATP
Source text: For all biochemical assays, human recombinant proteins were expressed in and purified from baculo virus transfected insect cells. The constructs comprised the GS-domain and kinase domain of wild-type ALK2 (aa172-499), ALK2 FOP mutant (aa172-499 R206H), ALK3 (aa198-525), ALK5 (aa162-503) and ALK6 (aa168-495).
A kinase selectivity panel which measures substrate peptide phosphorylation was set-up for wild-type ALK2 (aa172-499), ALK2 FOP mutant (aa172-499 R206H), ALK1 (aa166-493), ALK5 (aa162-503) and ALK6 (aa168-495). The technology used for the described assay is based on the separation and quantification of substrate and product in an electrical field. In the course of the kinase reaction the peptide substrate is phosphorylated by a kinase. […] Due to this difference in charge the phosphorylated und unphosphorylated peptides migrate with different velocities in an electrical field.
In the applied method, this separation takes place inside a chip that contains a complex capillary system for simultaneous analysis of 12 samples (“LabChip EZ Reader 12-sipper chip”, Caliper Technologies Corp., Mountain View, USA). In order to allow the detection and quantification of the peptides in the capillary system, the peptides carry a fluorescent label (fluorescein). With this label the peptides can be quantified by fluorescence intensity through the instruments laser and detection system (LC3000, Caliper Life Sciences).
The assays were performed in 384-well, low volume microtiter assay plates in a final reaction volume of 9 ul. Dose-response curves were generated by incubating 10 nM of each kinase together with 2 uM of the fluorescently labeled substrate peptide 5-Fluo-Ahx-[…]-T-[…]-amid (10 mM stock solution in DMSO) in 50 mM Hepes pH 7.5, 0.02% Tween 20, 0.02% BSA, 1 mM DTT, 10 uM Na3VO4, 10 mM ß-Glycerolphosphate, 1 mM MgCl2, 12 mM MnCl2 (ALK1 and ALK6 7 mM) and 15 uM ATP for 60 min at 30° C. in the presence or absence of compound diluted in DMSO.
Kinase reactions were terminated by adding 15 ul STOP buffer (100 mM HEPES pH 7.5, 5% DMSO, 0.1% Caliper coating reagent, 10 mM EDTA, and 0.015% Brij35.
Plates with terminated kinase reactions were transferred to the Caliper LC3000 workstation (Caliper Technologies Corp., Mountain View, USA) for reading. The relative amount of phosphorylated peptide r, was calculated using the heights of the substrate peak, s, and the product peak, p:r=p/(p+s).
IC50 values for a given antagonist correspond to the compound concentration needed to inhibit half of the maximum signal of the kinase reaction.

[4] = molecular target: T1, wild-type ALK2 (aa172-499); assay: ADPGlo biochemical autophosphorylation assay, ALK2; settings: 15 uM ATP
ALK1 (aa166-493) = ALK1 (aa166-493) (Homo sapiens (Human), UniProt P37023); assay: Caliper biochemical peptide phosphorylation assay, ALK1; settings: 15 uM ATP
[5] = Caliper peptide phosphorylation, 15 uM ATP, read-out: ALK2 IC50
[6] = Caliper peptide phosphorylation, R206H, 15 uM ATP, read-out: ALK2 FOP EPK IC50

ALK5 (aa162-503), sequence (P36897 162-503): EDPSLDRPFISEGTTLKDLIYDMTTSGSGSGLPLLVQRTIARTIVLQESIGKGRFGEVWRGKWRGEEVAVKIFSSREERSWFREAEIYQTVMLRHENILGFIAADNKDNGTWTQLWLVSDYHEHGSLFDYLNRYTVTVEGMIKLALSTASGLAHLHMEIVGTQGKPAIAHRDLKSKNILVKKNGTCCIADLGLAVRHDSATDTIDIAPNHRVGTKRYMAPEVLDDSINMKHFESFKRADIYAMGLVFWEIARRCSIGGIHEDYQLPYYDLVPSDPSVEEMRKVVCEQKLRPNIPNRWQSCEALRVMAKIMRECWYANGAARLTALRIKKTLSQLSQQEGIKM
T1 sequence (Q04771 172-499): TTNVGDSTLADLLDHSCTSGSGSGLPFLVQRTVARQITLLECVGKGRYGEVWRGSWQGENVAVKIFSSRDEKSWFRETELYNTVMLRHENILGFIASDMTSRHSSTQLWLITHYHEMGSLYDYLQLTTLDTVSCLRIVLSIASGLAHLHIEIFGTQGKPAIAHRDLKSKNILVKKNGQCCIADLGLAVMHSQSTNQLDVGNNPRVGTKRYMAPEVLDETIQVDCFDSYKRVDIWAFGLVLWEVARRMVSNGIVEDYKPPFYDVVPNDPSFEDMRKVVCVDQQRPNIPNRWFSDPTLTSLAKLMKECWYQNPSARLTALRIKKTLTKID
ALK1 (aa166-493), sequence (P37023 166-493): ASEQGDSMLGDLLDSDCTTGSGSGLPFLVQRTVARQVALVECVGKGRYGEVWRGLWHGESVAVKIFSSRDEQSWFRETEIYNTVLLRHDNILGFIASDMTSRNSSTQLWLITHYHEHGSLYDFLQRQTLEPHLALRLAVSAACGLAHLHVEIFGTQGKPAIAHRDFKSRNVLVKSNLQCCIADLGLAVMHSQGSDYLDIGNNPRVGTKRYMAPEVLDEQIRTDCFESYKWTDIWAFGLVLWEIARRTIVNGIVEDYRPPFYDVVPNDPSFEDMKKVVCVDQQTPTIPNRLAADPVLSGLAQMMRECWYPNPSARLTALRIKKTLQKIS
ALK2 FOP mutant (aa172-499 R206H), sequence (Q04771 172-499 R206H): as the sequence (Q04771 172-499) above, with R35H counted along it

Row | Compound | IC50 ([1]; read-out: IC50 in the ALK2 assay) [nM] | IC50 ([2]; read-out: IC50 in the ALK2-FOP assay) [nM] | IC50 [3] [nM] | IC50 (ALK5 (aa162-503)) [nM] | IC50 [1, 5] [nM] | IC50 [2, 6] [nM] | IC50 [4] [nM] | IC50 (ALK1 (aa166-493)) [nM]
1 | CC(C)n1cc(-c2cncc(-c3cnc4c(c3)C(C)(C)C(=O)N4C)c2)ccc1=O [5-(1′-isopropyl-6′-oxo-1′,6′-dihydro-[3,3′-bipyridin]-5-yl)-1,3,3-trimethyl-1H-pyrrolo[2,3-b]pyridin-2(3H)-one] | > 1000 | > 1000 |  |  |  |  |  | 
2 | Cc1cc(-c2cncc(-c3ccc4c(c3)CC(=O)N4C)c2)cn(C(C)C)c1=O [Example 3, 5-(5-(1-Isopropyl-5-methyl-6-oxo-1,6-dihydropyridin-3-yl)pyridin-3-yl)-1-methylindolin-2-one] |  |  | 50 | 660 | 90 | 70 | 97 | 
3 | CCC(CC)n1cc(-c2cncc(-c3ccc4c(c3)CC(=O)N4C)c2)ccc1=O [Example 4, 1-methyl-5-(6′-oxo-1′-(pentan-3-yl)-1′,6′-dihydro-[3,3′-bipyridin]-5-yl)indolin-2-one] |  |  |  | > 10000 | 600 | 650 | 1300 | 
4 | CCc1cc(-c2cncc(-c3ccc4c(c3)CC(=O)N4C)c2)cn(C(C)C)c1=O [Example 5, 5-(5′-Ethyl-1′-isopropyl-6′-oxo-1′,6′-dihydro-[3,3′-bipyridin]-5-yl)-1-methylindolin-2-one] |  |  | 60 | 720 | 160 | 130 | 140 | 900
5 | CCC(C)n1cc(-c2cncc(-c3ccc4c(c3)CC(=O)N4C)c2)ccc1=O (centres unmarked) [Example 7, 5-(1′-(sec-butyl)-6′-oxo-1′,6′-dihydro-[3,3′-bipyridin]-5-yl)-1-methylindolin-2-one] |  |  |  | 4400 | 190 | 170 | 230 | 1200
6 | CCn1cc(-c2cncc(-c3ccc4c(c3)CC(=O)N4C)c2)ccc1=O [Example 9, 5-(1′-ethyl-6′-oxo-1′,6′-dihydro-[3,3′-bipyridin]-5-yl)-1-methylindolin-2-one] |  |  | 540 | > 10000 | 460 | 400 | 490 | 
7 | CN1C(=O)Cc2cc(-c3cncc(-c4ccc(=O)n(C5CC5)c4)c3)ccc21 [Example 10, 5-(1′-cyclopropyl-6′-oxo-1′,6′-dihydro-[3,3′-bipyridin]-5-yl)-1-methylindolin-2-one] |  |  | 730 | > 10000 | 410 | 390 | 710 | 2900
8 | CC(C)Cn1cc(-c2cncc(-c3ccc4c(c3)CC(=O)N4C)c2)ccc1=O [Example 14, 5-(1′-isobutyl-6′-oxo-1′,6′-dihydro-[3,3′-bipyridin]-5-yl)-1-methylindolin-2-one] |  |  | 680 | 9100 | 480 | 510 | 740 | 4600
9 | CCN1C(=O)Cc2cc(-c3cncc(-c4ccc(=O)n(C(C)C)c4)c3)ccc21 [Example 20, 1-Ethyl-5-(1′-isopropyl-6′-oxo-1′,6′-dihydro-[3,3′-bipyridin]-5-yl)indolin-2-one] |  |  | 140 | 2500 | 90 | 90 | 110 | 
10 | CC(C)n1cc(-c2cncc(-c3ccc4c(c3)N(C)C(=O)C4)c2)ccc1=O [Example 26, 6-(1′-Isopropyl-6′-oxo-1′,6′-dihydro-[3,3′-bipyridin]-5-yl)-1-methylindolin-2-one] |  |  |  | > 10000 | 470 | 590 | 710 | 
11 | COCCN1C(=O)Cc2cc(-c3cncc(-c4ccc(=O)n(C(C)C)c4)c3)cnc21 [Example 27, 5-(1′-Isopropyl-6′-oxo-1′,6′-dihydro-[3,3′-bipyridin]-5-yl)-1-(2-methoxyethyl)-1H-pyrrolo[2,3-b]pyridin-2(3H)-one] |  |  |  | > 10000 | 880 | 1200 | 1700 | > 10000
12 | CC(C)n1cc(-c2cncc(-c3ccc4c(c3)CCC(=O)N4C)c2)ccc1=O [Example 28, 6-(1′-Isopropyl-6′-oxo-1′,6′-dihydro-[3,3′-bipyridin]-5-yl)-1-methyl-3,4-dihydroquinolin-2(1H)-one] |  |  |  | 580 | 30 | 20 | 31 | 
13 | COCCN1C(=O)Cc2cc(-c3cncc(-c4ccc(=O)n(C(C)C)c4)c3)ccc21 [Example 29, 5-(1′-Isopropyl-6′-oxo-1′,6′-dihydro-[3,3′-bipyridin]-5-yl)-1-(2-methoxyethyl)indolin-2-one] |  |  |  | 6800 | 130 | 150 | 140 | 1600
14 | COCCCN1C(=O)Cc2cc(-c3cncc(-c4ccc(=O)n(C(C)C)c4)c3)ccc21 [Example 30, 5-(1′-isopropyl-6′-oxo-1′,6′-dihydro-[3,3′-bipyridin]-5-yl)-1-(3-methoxypropyl)indolin-2-one] |  |  |  | 6000 |  |  |  | 1500
15 | CC(C)n1cc(-c2cncc(-c3cc4c(cc3F)N(C)C(=O)C4)c2)ccc1=O [Example 31] |  |  | 130 | 5300 | 100 | 90 | 120 | 770
16 | CC(C)n1cc(-c2cncc(-c3ccc4c(c3)NC(=O)C4(C)C)c2)ccc1=O [Example 32, 6-(1′-isopropyl-6′-oxo-1′,6′-dihydro-[3,3′-bipyridin]-5-yl)-3,3-dimethylindolin-2-one] |  |  |  | 690 |  |  |  | 280
17 | CC1C(=O)Nc2cc(-c3cncc(-c4ccc(=O)n(C(C)C)c4)c3)ccc21 (centres unmarked) [Example 33, 6-(1′-isopropyl-6′-oxo-1′,6′-dihydro-[3,3′-bipyridin]-5-yl)-3-methylindolin-2-one] |  |  | 330 | 2700 | 170 | 150 | 180 | 760
18 | CC(C)n1cc(-c2cncc(-c3ccc4c(c3)CC(=O)N4)c2)ccc1=O [Example 34, 5-(5-(1-Isopropyl-6-oxo-1,6-dihydropyridin-3-yl)pyridin-3-yl)indolin-2-one] |  |  | 190 | 3400 | 180 | 170 | 300 | 1100
19 | Cc1cc(-c2cncc(-c3ccc(=O)n(C(C)C)c3)c2)cc2c1N(C)C(=O)C2 [Example 35, 5-(1′-isopropyl-6′-oxo-1′,6′-dihydro-[3,3′-bipyridin]-5-yl)-1,7-dimethylindolin-2-one] |  |  | 140 | 5700 | 100 | 91 | 110 | 630
20 | CC(C)n1cc(-c2cncc(-c3ccc4c(c3)CCCC(=O)N4C)c2)ccc1=O [Example 39, 7-(1′-isopropyl-6′-oxo-1′,6′-dihydro-[3,3′-bipyridin]-5-yl)-1-methyl-4,5-dihydro-1H-benzo[b]azepin-2(3H)-one] |  |  | 110 | 1400 | 70 | 60 | 89 | 350
21 | CC(C)n1cc(-c2cncc(-c3ccc4c(c3)CC(=O)N4C)c2F)ccc1=O [Example 52, 5-(4-fluoro-1′-isopropyl-6′-oxo-1′,6′-dihydro-[3,3′-bipyridin]-5-yl)-1-methylindolin-2-one] |  |  |  | > 10000 | 380 | 380 | 690 | 3600
